Here are results for 1 compound from paper PMC10265666, “Lung SPLUNC1 Peptide Derivatives in the Lipid Membrane Headgroup Kill Gram-Negative Planktonic and Biofilm Bacteria” (Biomacromolecules, 2023).

The test system of data set [1] is Klebsiella pneumoniae, 24 clinical isolates and 1 lab strain. Type of data set: cell-based. To be noted: average over 25 K. pneumoniae substrains; 37 °C, 16 h, OD 570 nm; growth at 32 μM counted as 64 μM. Here is the method: Minimum inhibitory concentration (MIC, defined as the minimum AMP concentration to prevent bacterial growth) and biofilm data were obtained by UV–vis spectroscopy using a BioTek Epoch 2 microplate reader.
K. pneumoniae substrains were grown overnight using 50 mL plastic conical tubes on a shaker platform at 37 °C. The following day, serial dilutions of the four SPLUNC1 peptides and LL-37 were tested against these 25 substrains of K. pneumoniae using a 96-well plate. […] Following the addition of the peptides at the tested concentrations from serial dilutions to the K. pneumoniae substrains, the plates were incubated at 37 °C for 16 h. Then, visible spectroscopy at λ = 570 nm was performed to determine the bacterial absorption in each well. Those wells with an optical density reading above a threshold value were deemed resistant to the peptide, while those that were below the threshold value were deemed sensitive to the peptide. The threshold value was determined using Gen5 software with the Di lab Growth Inhibition Assay protocol.
Average MICs and standard deviations were calculated by first averaging the absorbances as a function of AMP concentration in all of the bacterial strains from four total data sets. Then, the average MICs were determined from the averaged absorbances. The standard deviations of the MICs were calculated from each of the absorbances that were used to calculate the average. Then, the standard deviations were averaged across substrains for the graph. These procedures were used to obtain an average MIC with standard deviation across all 25 substrains for one peptide, in order to compare peptide efficacy. Typically, many more substrains are used to obtain an average MIC, so this average MIC may change if thousands of substrains are compared.

Another data set has as its system 3T3 fibroblast cells. Type of data set: cell-based, murine. Here is the method: The TetraZ cell counting kit was used to quantify cell proliferation and cell viability. It is based on a water-soluble tetrazolium salt, which, when reduced by cellular dehydrogenases, produces a chromophore. ∼5 × 10^4 immortalized mouse RAW 264.7 macrophages and 3T3 fibroblast cells were incubated in a 96-well plate and allowed to attach for 24 h. AMPs in cell culture medium (DMEM D5796, 10% FBS, 1% P/S) were added to the wells. Cells were incubated at 37 °C for 4 h with the SPLUNC1 peptide derivatives at 8, 16, 32, and 64 μM concentrations. 10 μL of TetraZ was added and incubated for an additional 1.5 h at 37 °C. A Biotek Epoch 2 visible spectrophotometer was used to read the absorbance. The absorbance by the chromophore at λ = 450nm is proportional to the number of live cells (see standard curves, Figures S1 and S2, and additional cell line results (Figures S3 and S4) in the S.I.).

SMILES strings stand for the structures.

As to `CC[C@H](C)[C@H](NC(=O)[C@@H](NC(=O)[C@H](CO)NC(=O)[C@H](CCCCN)NC(=O)[C@@H](NC(=O)[C@H](CCCCN)NC(=O)CNC(=O)[C@H](Cc1c[nH]c2ccccc12)NC(=O)[C@@H](NC(=O)CNC(=O)CNC(=O)[C@@H](NC(=O)[C@H](Cc1c[nH]c2ccccc12)NC(=O)CNC(=O)[C@H](CCCCN)NC(=O)[C@@H](NC(=O)[C@H](CCCCN)NC(=O)[C@H](CCCCN)NC(=O)[C@H](Cc1ccccc1)NC(=O)[C@H](Cc1ccccc1)NC(=O)[C@H](CCCCN)NC(=O)[C@H](CCCCN)NC(=O)[C@@H](N)CC(C)C)C(C)C)C(C)C)C(C)C)C(C)C)C(C)C)C(=O)N[C@@H](CCCCN)C(=O)O` (stereo in doubt) [A4-153], the “average MIC value” in data set [1] came out at 18 µM. Moreover, the “concentration required for 0% viable cells (estimate)” value in the data set with 3T3 fibroblast cells is 128 µM. Also, the “viable cells compared to the control” value with 3T3 fibroblast cells (64 µM) is recorded as ~30%.
